Assay results from patent US7628991B2, “Use of Lactobacillus farciminis for the prevention or treatment of digestive pathologies” (Institute National de la Recherche Agronomique (INRA), priority 2002, dated 2009).

Assays:
[1] = test system: colonic inflammation induced by TNBS/ethanol; test: Myeloperoxidase (MPO) activity of the colon wall, TNBS/ethanol-induced colitis (Example 1); type: in vivo, WISTAR rats; details: rats without TNBS/ethanol (0.9% NaCl instillation); intracolonic infusion for 4 days
Excerpt: (§1) This colitis is characterized by an increase in myeloperoxidase (MPO) activity, a marker of the degree of infiltration of polynuclear neutrophils in the colonic mucosa, and by the increase in the macroscopic lesion score (MLS) taking into account the seriousness and the extent of the macroscopic lesions appearing, the presence and seriousness of adherences and the presence or nonpresence of diarrhea in the colon.
The effects of a treatment with a nitric oxide donor, sodium nitroprusside (SNP), or with L. farciminis on a TNBS-induced colitis in rats were compared. Moreover, the effective role of exogenous nitric oxide in these effects was evaluated using an NO scavenger, hemoglobin (Hb). […]
The myeloperoxidase (MPO) activity is determined on colon samples isolated according to the protocol described by BRADLEY et al. (J. Invest. Dermatol., 78, 206-209, 1982). […]
The MPO activity is determined by spectrophotometry. […] The changes in absorbance. (450 nm, 25° C.) were determined by kinetic spectrophotometry of 2 minutes, according to the balanced equation for the enzymatic reaction catalyzed by MPO: H2O2+Cl^−=H2O+HOCl (orange color), and expressed as MPO units.
One MPO activity unit is defined as the quantity of MPO degrading 1 μmol of hydrogen peroxide per minute per milliliter at 25° C. […]

[2] = test system: colonic inflammation induced by TNBS/ethanol; test: Macroscopic lesion score (MLS) of the colon, TNBS/ethanol-induced colitis (Example 1); type: in vivo, WISTAR rats; details: rats instilled with TNBS/ethanol, 4 days after instillation; daily intracolonic infusion; SNP 1 mg/kg/day, Hb 200 mg/kg/day
Excerpt: as §1
For the study of the effects of SNP, 7 groups of WISTAR rats of 200-250 grams were provided, under anesthetic, with an intracolonic catheter (+2 cm from the caeco-colonic junction) exteriorized at the level of the dorsoscapular region. At D+5, the rats receive an intracolonic instillation of 80 mg/kg/day of TNBS/ethanol (groups 4-7) or of a 0.9% NaCl solution (groups 1-3). 4 hours after the instillation, the rats are infused at a flow rate of 250 μl/hour with 1 mg/kg/day of SNP (groups 2 and 5), or 200 mg/kg/day of Hb (groups 3 and 7), or an SNP+Hb mixture (group 6), or a 0.9% NaCl solution (groups 1 and 4), for 4 days. […]
The macroscopic lesion score (MLS) is determined on isolated colonic samples as described by WALLACE et al., (Gastroenterology, 102, 18-27, 1992) according to the assessment grid below: […]

## hemoglobin [Hb]
[1]
  MPO activity of the colon wall: 426±117 MPO U/g of proteins
[2]
  Macroscopic lesion score (MLS): 5.8±1.3
